Some test systems named below: A498; CCRF-CEM; HCC 2998; MDA-MB-231; MDA-N; Malme-3M; NCI-H226; NCI-H23; OVCAR-5; SF-268; SF-295; SK-MEL-5; SN12C; SNB-19; SNB-75; UACC-257; UO-31; COLO 205; SK-OV-3.
Holding throughout (assay): NCI tumour cell line growth inhibition, 48 h

Structures are written as SMILES.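 Cells were grown in 96-well plates and exposed to each compound for 48 hours at five concentrations; endpoints were interpolated linearly between bracketing concentrations, or set to the highest concentration if not reached. The concentration for 50% growth inhibition is given as GI50.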 Activity calls are given as the source filed them. Cut-off read from the data, not from the text of the source: active = GI50 up to about 1.1 µM and inactive = higher. Bounds are passed on as bounds.

Regarding `NC(=O)NC(CC(=O)O)C(=O)O` (stereo not drawn), the GI50 in the assay on A498, with CCRF-CEM, in the assay with HCC 2998, in the assay with MDA-MB-231, with MDA-N and in the assay on Malme-3M was > 100 µM (inactive) each time. Also, the GI50 with NCI-H226, in the assay on NCI-H23, with OVCAR-5, with SF-268, in the assay on SF-295 and with SK-MEL-5 was > 100 µM (inactive) in each case. Further, the GI50 in the assay on SN12C is > 100 µM (inactive); in the assay on SNB-19 it was > 100 µM (inactive); in the assay on SNB-75, > 100 µM (inactive); with UACC-257 it was 93.3 µM (inactive); in the assay with UO-31, > 100 µM (inactive).

Consider `CO[C@H]1O[C@@H]2CO[C@@H](c3ccccc3)O[C@H]2[C@@H]2CC=CCC[C@]12O`, for which the GI50 with A498 was 32.1 µM (inactive); with CCRF-CEM, 31 µM (inactive); in the assay with COLO 205, 48.5 µM (inactive); in the assay on HCC 2998 it was 18.5 µM (inactive); with MDA-MB-231, > 100 µM (inactive); in the assay with MDA-N, 50.9 µM (inactive). In addition, the GI50 in the assay on Malme-3M is 12.6 µM (inactive); with NCI-H226 it was > 100 µM (inactive); in the assay on NCI-H23, 36.6 µM (inactive); in the assay with OVCAR-5, > 100 µM (inactive); in the assay with SF-268, 21.8 µM (inactive); in the assay with SF-295, 74.5 µM (inactive). Further, the GI50 with SK-MEL-5 was 67.1 µM (inactive); in the assay on SK-OV-3, > 100 µM (inactive); in the assay with SN12C, 61.8 µM (inactive); in the assay on SNB-19 it was > 100 µM (inactive); in the assay with SNB-75, > 100 µM (inactive); with UACC-257, 35.6 µM (inactive). The GI50 in the assay with UO-31 was 48.2 µM (inactive).

For `CCOC(=O)C(=O)/C(=C/NC(=S)c1ccncc1)C(=O)OCC`, the GI50 in the assay with A498, with CCRF-CEM, in the assay on COLO 205, in the assay with HCC 2998, with MDA-MB-231 and in the assay with MDA-N was > 100 µM (inactive) in each case. The GI50 in the assay with Malme-3M, with NCI-H226, in the assay on NCI-H23, in the assay on OVCAR-5, with SF-268 and in the assay on SF-295 was > 100 µM (inactive) in each case. Moreover, the GI50 was > 100 µM (inactive) with SK-MEL-5; > 100 µM (inactive) in the assay on SK-OV-3; > 100 µM (inactive) with SN12C; 9.68 µM (inactive) with SNB-19; > 100 µM (inactive) with SNB-75; > 100 µM (inactive) in the assay with UACC-257. The GI50 with UO-31 was 5.71 µM (inactive).

For the compound `CC(NC(=O)/C(=C/c1ccccc1)NC(=O)c1ccccc1)C(=O)O` (stereo not drawn), the GI50 in the assay on A498 was > 100 µM (inactive); in the assay on CCRF-CEM it was > 100 µM (inactive); in the assay on COLO 205 it was > 100 µM (inactive); in the assay with HCC 2998, > 100 µM (inactive); in the assay on MDA-MB-231 it was 36.5 µM (inactive); with MDA-N, 55.8 µM (inactive). Further, the GI50 in the assay on Malme-3M was > 100 µM (inactive); with NCI-H226, 26.1 µM (inactive); in the assay on NCI-H23, 47.4 µM (inactive); with OVCAR-5 it was > 100 µM (inactive); in the assay on SF-268, > 100 µM (inactive); with SF-295, 96.4 µM (inactive). In addition, the GI50 was > 100 µM (inactive) in the assay with SK-MEL-5; 87.3 µM (inactive) in the assay with SK-OV-3; 92.3 µM (inactive) in the assay with SN12C; 77.1 µM (inactive) with SNB-19; 24.1 µM (inactive) in the assay on SNB-75; > 100 µM (inactive) with UACC-257. The GI50 with UO-31 was 91.4 µM (inactive).

For the compound `O=C(O)[C@H]1[C@@H](C2CCCCC2)O[C@@H](C2CCCCC2)O[C@H]1C(F)(F)F`, the GI50 was 19 µM (inactive) in the assay with A498; 22.8 µM (inactive) with CCRF-CEM; 20.4 µM (inactive) with COLO 205; 20 µM (inactive) in the assay on HCC 2998; 18.2 µM (inactive) with MDA-MB-231; 16.9 µM (inactive) in the assay on MDA-N. The GI50 with Malme-3M is 28.6 µM (inactive); with NCI-H226, 21.1 µM (inactive); in the assay on NCI-H23, 21.3 µM (inactive); in the assay on OVCAR-5 it was 20.2 µM (inactive); in the assay on SF-268, 20.2 µM (inactive); in the assay on SF-295, 19.1 µM (inactive). Also, the GI50 in the assay on SK-MEL-5 is 20.7 µM (inactive); in the assay with SK-OV-3 it was 38.9 µM (inactive); in the assay on SN12C, 17.1 µM (inactive); with SNB-19 it was 27.5 µM (inactive); in the assay with SNB-75 it was 18.7 µM (inactive); with UACC-257, 32.7 µM (inactive). In addition, the GI50 in the assay on UO-31 was 26.2 µM (inactive).

`OCCCSCCO`: the GI50 with A498, with CCRF-CEM, in the assay with COLO 205, in the assay on HCC 2998, in the assay on MDA-MB-231 and with MDA-N was > 100 µM (inactive) throughout. For the same compound, the GI50 in the assay on Malme-3M, with NCI-H226, in the assay on NCI-H23, in the assay on OVCAR-5, in the assay on SF-268 and with SF-295 was > 100 µM (inactive) each time. The GI50 with SK-MEL-5, in the assay on SK-OV-3, in the assay on SN12C, in the assay on SNB-19, in the assay on SNB-75 and in the assay on UACC-257 was > 100 µM (inactive) in each case. Besides, in the assay with UO-31, the GI50 is > 100 µM (inactive).

Turning to `COC(=O)C1=C(O)C(C(=O)OC)[C@]2(O)[C@H](C(=O)OC)[C@H]1C[C@@H](c1c(Cl)cccc1Cl)[C@H]2C(=O)OC` (stereo partly drawn), the GI50 in the assay with A498 is 2 µM (inactive); in the assay on COLO 205, 2.07 µM (inactive); with HCC 2998 it was 1.66 µM (inactive); in the assay on MDA-MB-231, 2.96 µM (inactive); in the assay with MDA-N, 1.37 µM (inactive); with Malme-3M it was 2.07 µM (inactive). Also, the GI50 was 2.14 µM (inactive) with NCI-H226; 2.02 µM (inactive) in the assay on NCI-H23; 3.13 µM (inactive) with SF-268; 2.67 µM (inactive) in the assay on SF-295; 1.66 µM (inactive) in the assay with SK-MEL-5; 3.96 µM (inactive) in the assay with SK-OV-3. Moreover, the GI50 was 2.23 µM (inactive) in the assay on SN12C; 2.07 µM (inactive) in the assay on SNB-19; 2.23 µM (inactive) in the assay on SNB-75; 2.08 µM (inactive) in the assay with UACC-257; 1.65 µM (inactive) in the assay on UO-31.

Regarding `COC(c1ccsc1)C(C#N)(C#N)/N=C/c1ccsc1` (stereo not drawn), the GI50 in the assay on A498 was 14.9 µM (inactive); in the assay with CCRF-CEM, 5.96 µM (inactive); with COLO 205 it was 16.5 µM (inactive); in the assay with HCC 2998, 19.8 µM (inactive); in the assay on MDA-MB-231, 7.4 µM (inactive); with MDA-N, 16 µM (inactive). The GI50 in the assay with Malme-3M is 15.3 µM (inactive); with NCI-H226, 21.6 µM (inactive); in the assay on NCI-H23 it was 13.1 µM (inactive); in the assay on OVCAR-5, 20.9 µM (inactive); with SF-268 it was 16.1 µM (inactive); with SF-295, 18.1 µM (inactive). Further, the GI50 is 13.6 µM (inactive) in the assay on SK-MEL-5; 21.1 µM (inactive) in the assay with SK-OV-3; 16.7 µM (inactive) with SN12C; 23 µM (inactive) with SNB-19; 15.1 µM (inactive) in the assay on SNB-75; 14.7 µM (inactive) in the assay with UACC-257. For the same compound, the GI50 in the assay with UO-31 was 13.4 µM (inactive).

On to `COc1ccc(OC)c(-c2nc(O)c3ccccc3n2)c1`, for which the GI50 with A498, with CCRF-CEM, in the assay with COLO 205, in the assay with HCC 2998, in the assay on MDA-MB-231 and in the assay on MDA-N was > 100 µM (inactive) each time. Besides, the GI50 with Malme-3M, with NCI-H226, with NCI-H23, with OVCAR-5, in the assay with SF-268 and with SF-295 was > 100 µM (inactive) each time. The GI50 is 74 µM (inactive) in the assay on SK-MEL-5; > 100 µM (inactive) with SK-OV-3; > 100 µM (inactive) in the assay on SN12C; > 100 µM (inactive) with SNB-19; > 100 µM (inactive) in the assay with SNB-75; > 100 µM (inactive) in the assay on UACC-257. Moreover, the GI50 in the assay with UO-31 was > 100 µM (inactive).

On to `COc1ccc(N2C(=O)C3c4[nH]c5ccc(C)cc5c4C4CCC(C(C)C)CC4C3C2=O)cc1` (stereo not drawn), for which the GI50 with A498 was > 100 µM (inactive); with CCRF-CEM it was 0.995 µM (active); with COLO 205, > 100 µM (inactive); in the assay on HCC 2998 it was > 100 µM (inactive); with MDA-MB-231, > 100 µM (inactive); with MDA-N, > 100 µM (inactive). Also, the GI50 was > 100 µM (inactive) in the assay with NCI-H226; > 100 µM (inactive) with NCI-H23; > 100 µM (inactive) with OVCAR-5; 75.5 µM (inactive) in the assay on SF-268; > 100 µM (inactive) in the assay on SF-295; > 100 µM (inactive) with SK-MEL-5. For the same compound, the GI50 was > 100 µM (inactive) with SK-OV-3; > 100 µM (inactive) with SN12C; > 100 µM (inactive) with SNB-19; 27.7 µM (inactive) in the assay with SNB-75; > 100 µM (inactive) with UACC-257; > 100 µM (inactive) with UO-31.

For the compound `COC1CCC(OS(C)(=O)=O)C(C)O1` (stereo not drawn), the GI50 in the assay on A498, in the assay with CCRF-CEM, in the assay on COLO 205, with HCC 2998, in the assay on MDA-MB-231 and in the assay on MDA-N was > 10 µM (inactive) throughout. Moreover, the GI50 with Malme-3M, in the assay on NCI-H226, in the assay with NCI-H23, with OVCAR-5, in the assay on SF-268 and in the assay on SF-295 was > 10 µM (inactive) throughout. The GI50 with SK-MEL-5, in the assay on SK-OV-3, in the assay with SN12C, in the assay on SNB-19, in the assay on SNB-75 and in the assay on UACC-257 was > 10 µM (inactive) each time.

The record behind these values is ChEMBL document CHEMBL1201862, “PubChem BioAssay data set” (2004).
